Holding throughout (type): functional
For one experiment, the species on record is Cavia porcellus. Nature of the experiment: Concentration required to produce 30% reduction (in vitro) from the initial spontaneous beat rates in isolated guinea pig atrium. As to conditions: Cardiac atrium.
The test system of experiment [1] is Rattus norvegicus. The experiment in a line: Percentage change in heart rate from the initial value in urethane-anesthetized rats at 3 mg/kg intravenous dose.
For experiment [2], the system named is Rattus norvegicus. The experiment in a line: Dose to produce minimal influence on mean blood pressure in anesthetized rats.

Data on 14 compounds can be found in ChEMBL document CHEMBL1136080, “(+/-)-2-(3-Piperidyl)-1,2,3,4-tetrahydroisoquinolines as a new class of specific bradycardic agents” (2003).

The structures appear in SMILES notation.

For orientation: EC30 means the concentration needed for an effect of 30%. Low readings indicate an effect from little substance, high ones a need for much substance.

Take `COc1cc2c(cc1OC)CN(C1CCCN(CCCOc3ccc4c(c3)-c3ccccc3C4)C1)CC2` (centres undefined): the EC30 in the experiment listed under Cavia porcellus was found to be 4100 nM.

For the compound `COc1cc2c(cc1OC)CN(C1CCCN(CCCc3ccccc3)C1)CC2` (centres undefined), the 30% effect concentration (EC30) in the experiment listed under Cavia porcellus is 1200 nM.

In the experiment filed under Cavia porcellus, `COc1cc2c(cc1OC)CN(C1CCCN(CCCOc3ccc4c(c3)CCC4)C1)CC2` (centres undefined) registered an EC30 of 660 nM. Moreover, in the experiment with Rattus norvegicus [1], the Change is 38%.

With `COc1cc2c(cc1OC)CN(C1CCCN(CCCOc3ccc4c(c3)OCO4)C1)CC2` (centres undefined), the concentration for an effect of 30% (EC30) in the experiment filed under Cavia porcellus is 250 nM. Also, the Change in the experiment with Rattus norvegicus [1] is listed as 47%. This compound also had a Dose in the experiment on Rattus norvegicus [2] of 10 mg/kg.

In the experiment listed under Cavia porcellus, `COc1ccc(CCN(C)CCCN2CCc3cc(OC)c(OC)cc3CC2=O)cc1OC` [ZATEBRADINE] showed an EC30 of 260 nM. Besides, the Change in the experiment with Rattus norvegicus [1] is given as 47%.

`COc1cc2c(cc1OC)CN(C1CCCN(CCCOc3ccc4ccccc4c3)C1)CC2` (centres undefined) had an EC30 in the experiment listed under Cavia porcellus of 840 nM. Further, the Change in the experiment on Rattus norvegicus [1] was 23%.

Turning to `COc1ccc(OCCCN2CCCC(N3CCc4cc(OC)c(OC)cc4C3)C2)cc1OC` (centres undefined), in the experiment listed under Cavia porcellus, it took 380 nM to reach the 30% level (EC30). Moreover, the Change in the experiment with Rattus norvegicus [1] is 47%.

`COc1ccc(OCCCN2CCCC(N3CCc4cc(OC)c(OC)cc4C3)C2)cc1` (centres undefined) gave an EC30 in the experiment filed under Cavia porcellus of 390 nM. In the experiment with Rattus norvegicus [1], this compound came in with a Change of 40%.

Regarding `COc1cc2c(cc1OC)CN(C1CCCN(CCCOc3cc(OC)c(OC)c(OC)c3)C1)CC2` (centres undefined), in the experiment filed under Cavia porcellus, the 30% effect level (EC30) was put at 1500 nM.

`COc1cc2c(cc1OC)CN(C1CCCN(CCCCCc3ccccc3)C1)CC2` (centres undefined) showed an EC30 in the experiment filed under Cavia porcellus of 1300 nM.

`COc1cc2c(cc1OC)CN(C1CCCN(Cc3ccccc3)C1)CC2` (centres undefined) had a 30% effect concentration (EC30) in the experiment filed under Cavia porcellus of 830 nM. The Change in the experiment on Rattus norvegicus [1] is listed as 33%.

In turn, `COc1cc2c(cc1OC)CN(C1CCCN(CCc3ccccc3)C1)CC2` (centres undefined) registered an EC30 in the experiment filed under Cavia porcellus of 2200 nM.

Take `COc1cc2c(cc1OC)CN(C1CCCN(CCCOc3ccccc3)C1)CC2` (centres undefined): the EC30 in the experiment listed under Cavia porcellus is 430 nM. In the experiment on Rattus norvegicus [1], this compound showed a Change of 40%.

In the experiment filed under Cavia porcellus, `COc1cc2c(cc1OC)CN(C1CCCN(CCCCc3ccccc3)C1)CC2` (centres undefined) returned an EC30 of 540 nM. In addition, the Change in the experiment on Rattus norvegicus [1] came out at 23%.
